Data set [1] is described as follows: xn = mol fraction of the nth substance listed. To be noted: 101 kPa, Liquid, x2 = 0; for viscosity: Capillary tube (Ostwald / Ubbelohde) method; for speed of sound: Sing-around technique in a fixed-path interferometer; for mass density: Vibrating tube method.
The conditions of data set [2]: 101 kPa, Liquid; for viscosity: Capillary tube (Ostwald / Ubbelohde) method; for speed of sound: Sing-around technique in a fixed-path interferometer; for mass density: Vibrating tube method.

Structures are written as SMILES. ± gives the expanded uncertainty stated by the source.

A word on the viscosity: it is the internal friction of a fluid under shear. The term speed of sound denotes how fast a sound wave travels through the sample. As a reminder, the mass density is the mass of a sample divided by its volume.

In the case of `CCCC(C)=O` [pentan-2-one] + CC1CCCC1, in data set [1] (293.15 K), the viscosity is listed as 0.496 ± 0.011 mPa·s, the speed of sound is recorded as 1233 ± 2 m/s and the mass density came to 806.26 ± 0.23 kg/m3. Further, in data set [1] (298.15 K), the viscosity stood at 0.469 ± 0.01 mPa·s, the speed of sound was 1213 ± 2 m/s and the mass density worked out at 801.42 ± 0.23 kg/m3. For the same compound, in data set [1] (303.15 K), the viscosity is listed as 0.444 ± 0.009 mPa·s, the speed of sound is 1192 ± 2 m/s and the mass density turned out to be 796.58 ± 0.23 kg/m3.

Turning to `CCC(C)=O` [butanone], in data set [2] (293.15 K), the viscosity is given as 0.398 ± 0.009 mPa·s, the speed of sound is given as 1213 ± 2 m/s and the mass density is reported as 804.95 ± 0.23 kg/m3. Further, in data set [2] (298.15 K), the viscosity was 0.378 ± 0.008 mPa·s, the speed of sound is 1192 ± 2 m/s and the mass density is recorded as 799.74 ± 0.23 kg/m3. Also, in data set [2] (303.15 K), the viscosity was 0.36 ± 0.008 mPa·s, the speed of sound came out at 1171 ± 2 m/s and the mass density came out at 794.48 ± 0.23 kg/m3.

In the case of `CC(C)=O` [acetone] + CC1CCCC1, the viscosity in data set [1] (293.15 K) was 0.32 ± 0.007 mPa·s; in data set [1] (298.15 K) it was 0.306 ± 0.007 mPa·s; in data set [1] (303.15 K), 0.292 ± 0.006 mPa·s. Also, the values for the speed of sound in data set [1] (293.15 K), in data set [1] (298.15 K) and in data set [1] (303.15 K) were 1185 ± 2 m/s, 1162 ± 2 m/s and 1140 ± 2 m/s, respectively. The results for the mass density in data set [1] (293.15 K), in data set [1] (298.15 K) and in data set [1] (303.15 K) were 791.11 ± 0.15 kg/m3, 785.41 ± 0.15 kg/m3 and 779.66 ± 0.15 kg/m3, respectively.

`CC(C)=O` [acetone]: the results for the viscosity in data set [2] (293.15 K), in data set [2] (298.15 K) and in data set [2] (303.15 K) were 0.32 ± 0.007 mPa·s, 0.306 ± 0.007 mPa·s and 0.292 ± 0.006 mPa·s, respectively. Moreover, the figures for the speed of sound in data set [2] (293.15 K), in data set [2] (298.15 K) and in data set [2] (303.15 K) were 1185 ± 2 m/s, 1162 ± 2 m/s and 1140 ± 2 m/s, respectively. For the same compound, the results for the mass density in data set [2] (293.15 K), in data set [2] (298.15 K) and in data set [2] (303.15 K) were 791.11 ± 0.15 kg/m3, 785.41 ± 0.15 kg/m3 and 779.66 ± 0.15 kg/m3, respectively.

As for `CCCC(C)=O` [pentan-2-one], in data set [2] (293.15 K), the viscosity amounted to 0.496 ± 0.011 mPa·s, the speed of sound is listed as 1233 ± 2 m/s and the mass density turned out to be 806.26 ± 0.23 kg/m3. In addition, in data set [2] (298.15 K), the viscosity was 0.469 ± 0.01 mPa·s, the speed of sound was 1213 ± 2 m/s and the mass density is on record as 801.42 ± 0.23 kg/m3. Besides, in data set [2] (303.15 K), the viscosity amounted to 0.444 ± 0.009 mPa·s, the speed of sound amounted to 1192 ± 2 m/s and the mass density was determined as 796.58 ± 0.23 kg/m3.

On to `CCC(C)=O` [butanone] + CC1CCCC1, for which, in data set [1] (293.15 K), the viscosity turned out to be 0.398 ± 0.009 mPa·s, the speed of sound is 1213 ± 2 m/s and the mass density stood at 804.95 ± 0.23 kg/m3. Further, in data set [1] (298.15 K), the viscosity is 0.378 ± 0.008 mPa·s, the speed of sound was determined as 1192 ± 2 m/s and the mass density is reported as 799.74 ± 0.23 kg/m3. In addition, in data set [1] (303.15 K), the viscosity was determined as 0.36 ± 0.008 mPa·s, the speed of sound turned out to be 1171 ± 2 m/s and the mass density is recorded as 794.48 ± 0.23 kg/m3.

With `CC1CCCC1` [methylcyclopentane], in data set [2] (293.15 K), the viscosity is 0.504 ± 0.016 mPa·s, the speed of sound was 1197 ± 5 m/s and the mass density came to 746.64 ± 2 kg/m3. Besides, in data set [2] (298.15 K), the viscosity turned out to be 0.476 ± 0.016 mPa·s, the speed of sound is 1174 ± 5 m/s and the mass density is 741.94 ± 2 kg/m3. For the same compound, in data set [2] (303.15 K), the viscosity is 0.45 ± 0.015 mPa·s, the speed of sound is recorded as 1150 ± 5 m/s and the mass density came out at 737.21 ± 1.9 kg/m3.
